Experimental data: patent publication US8188048B2 (priority 2006, dated 2012)
Where “and” joins values, the source holds several entries; their conditions need not be identical. Equal entries are not always repeated.

Test system: CCI-rats (chronic constriction injury of the sciatic nerve); tactile allodynia in ipsilateral hindpaw, antinociception in contralateral hindpaw
Set-up: species or system Sprague-Dawley rats
Settings: rat, in vivo

Q: How did the ED10 turn out when “pGlu Gly Val Cys1 Cys2 Gly Tyr Lys Leu Cys3 His Hyp Cys4 [SEQ ID NO: 6]” was run?
A: 0.2 nmol

Q: What about the ED20 of the same substance?
A: 0.4 nmol

Q: What about the “ED50 for antinociception in the contralateral hindpaw” value of the same substance?
A: 15.2 nmol

Q: What about the “ED50 for the alleviation of tactile allodynia in the ipsilateral hindpaw” value of the same substance?
A: 14.8 (±1.1) nmol and 15.7 (±3.9) nmol

Q: And the “change of mean PWT by 5 min post-dosing” value?
A: more than doubled

Q: And the duration of action?
A: 2 to 3 h and > 4 h

Q: And the “duration of action relative to a similarly large dose of i.t. morphine (35 nmol)” value?
A: ~10 fold

Q: What about the “duration of anti-allodynic response relative to the 10 nmol dose” value of the same substance?
A: > 7 fold and > 13 fold

Q: And the “duration of the anti-allodynic response” value?
A: ~30 h and ~54 h

Q: What about the “effect on PWT in both the ipsilateral and contralateral hindpaws” value of the same substance?
A: dose-dependent increase

Q: What about the “extent and duration (PWT AUCs) of ipsilateral responses relative to contralateral responses” value of the same substance?
A: ~2 fold

Q: What about the “time of peak anti-allodynic and antinociceptive effects” value of the same substance?
A: 1 to 1.5 h

Q: What about the “time of peak antiallodynic and antinociceptive effects post-dosing” value of the same substance?
A: 15 min

Q: And the “time of peak effect” value?
A: 1 to 1.5 h
